Assay results reported in patent US20210369853A1, “TARGETED PROTEASE DEGRADATION PLATFORM” (EUBULUS BIOTHERAPEUTICS INC., priority 2018, published 2021).
pEC50: −log10 of the molar value.

Tested on: Human Monocytic Leukemia MV4-11
Assay: Cell proliferation experiment (Alarm blue, 72 h, EC50)
Assay type: cell-based
Details: Homo sapiens, MV4-11, MV4;11 cells
Method: (2.1) Cell Proliferation Experiment:
Reagents: RPMI-1640 medium, McCoy's 5A medium, IMDM medium, MEM medium, L-15 medium, fetal bovine serum, Penicillin-Streptomycin double antibody, trypsin, etc., 2-mercaptoethanol, NEAA, pyruvate, etc.
The cells were cultured in conventional ways, and the cells should be passed at least for at least 2 generations before plating. Cells at the logarithmic growth phase are collected, prepared into single cell suspensions and counted. The concentration of cells was adjusted to the desired concentration, and cells were inoculated into a 96-well cell culture plate at 100 μl per well. 100 μL of complete medium of the test compound were added to each well, set up 2 duplicates for each concentration, and diluted with a 5-fold gradient, and continue to culture for 72 h. All cells were subjected to EC50 test for corresponding samples.
The fluorescence intensity of each well was detected using the Alarm blue method, and EC50 was calculated.
EC50 was calculated according to the following formula:
Y=Max+(Min−Max)/[1+(X/EC50)×Slope]
wherein Min, Max and Slope represent the minimum, maximum and slope respectively.

First: CC[C@@H]1C(=O)N(C)c2cnc(Nc3ccc(C(=O)NCCOCCNCCCCCCCC(=O)Nc4cccc5c4CN(C4CCC(=O)NC4=O)C5=O)cc3OC)nc2N1Cc1ccc(Br)cc1 (stereo partly drawn) [UB-180652]
Second: COc1cc(C(=O)NCCOCCNCCCCCCC(=O)Nc2cccc3c2CN(C2CCC(=O)NC2=O)C3=O)ccc1Nc1ncc2c(n1)N(Cc1ccc(Br)cc1)CC(C)(C)C(=O)N2C (stereo not drawn) [UB-180672]
The pEC50 of the first is higher: 7.00 to 8.00 for the first, 6.00 to 7.00 for the second.

`Cc1ncsc1-c1ccc(CNC(=O)[C@@H]2C[C@@H](O)CN2C(=O)[C@@H](NC(=O)CCNC(=O)[C@]2(Cc3cccc(Nc4nccs4)n3)CC[C@@H](Oc3cccc(Cl)c3F)CC2)C(C)(C)C)cc1` [UB-180614] and `Cc1ncsc1-c1ccc(CNC(=O)[C@@H]2C[C@@H](O)CN2C(=O)[C@@H](NC(=O)CCOCCOCCNC(=O)[C@]2(Cc3cccc(Nc4nccs4)n3)CC[C@@H](Oc3cccc(Cl)c3F)CC2)C(C)(C)C)cc1` [UB-180599] cannot be ordered by pEC50: less than 6.00 for the first, less than 6.00 for the second.

`O=C1CCC(N2Cc3c(NC(=O)COCCNCCOCCOCCOCCNC(=O)[C@]4(Cc5cccc(Nc6nccs6)n5)CC[C@@H](Oc5cccc(Cl)c5F)CC4)cccc3C2=O)C(=O)N1` (stereo partly drawn) [UB-180793] and `O=C1CCC(N2Cc3c(NC(=O)CCNCCOCCOCCOCCNC(=O)[C@]4(Cc5cccc(Nc6nccs6)n5)CC[C@@H](Oc5cccc(Cl)c5F)CC4)cccc3C2=O)C(=O)N1` (stereo partly drawn) [UB-180731] fall in the same range of pEC50: 6.00 to 7.00 for the first, 6.00 to 7.00 for the second.

`CC[C@@H]1C(=O)N(C)c2cnc(Nc3ccc(C(=O)NCc4cn(CCNCCCC(=O)Nc5cccc6c5CN(C5CCC(=O)NC5=O)C6=O)nn4)cc3OC)nc2N1Cc1ccc(Br)cc1` (stereo partly drawn) [UB-180676] and `CC[C@@H]1C(=O)N(C)c2cnc(Nc3ccc(C(=O)NC4CCN(CCNCCCCC(=O)Nc5cccc6c5CN(C5CCC(=O)NC5=O)C6=O)CC4)cc3OC)nc2N1Cc1ccc(Br)cc1` (stereo partly drawn) [UB-180685] fall in the same range of pEC50: 7.00 to 8.00 for the first, 7.00 to 8.00 for the second.

`O=C1CCC(N2Cc3c(NC(=O)CNCCOCCN4CCC(NC(=O)[C@]5(Cc6cccc(Nc7nccs7)n6)CC[C@@H](Oc6cccc(Cl)c6F)CC5)CC4)cccc3C2=O)C(=O)N1` (stereo partly drawn) [UB-180736] and `O=C1CCC(N2Cc3c(NC(=O)CCOCCNCCN4CCC(NC(=O)[C@]5(Cc6cccc(Nc7nccs7)n6)CC[C@@H](Oc6cccc(Cl)c6F)CC5)CC4)cccc3C2=O)C(=O)N1` (stereo partly drawn) [UB-180769] fall in the same range of pEC50: 6.00 to 7.00 for the first, 6.00 to 7.00 for the second.

`Cc1ncsc1-c1ccc(CNC(=O)[C@@H]2C[C@@H](O)CN2C(=O)[C@@H](NC(=O)CCOCCCOCCOCCNC(=O)[C@]2(Cc3cccc(Nc4nccs4)n3)CC[C@@H](Oc3cccc(Cl)c3F)CC2)C(C)(C)C)cc1` [UB-180600] and `Cc1ncsc1-c1ccc(CNC(=O)[C@@H]2C[C@@H](O)CN2C(=O)[C@@H](NC(=O)COCCOCCOCCNC(=O)[C@]2(Cc3cccc(Nc4nccs4)n3)CC[C@@H](Oc3cccc(Cl)c3F)CC2)C(C)(C)C)cc1` [UB-180584] fall in the same range of pEC50: 6.00 to 7.00 for the first, 6.00 to 7.00 for the second.

`CC[C@@H]1C(=O)N(C)c2cnc(Nc3ccc(C(=O)NCCOCCNCCCCC(=O)Nc4cccc5c4CN(C4CCC(=O)NC4=O)C5=O)cc3OC)nc2N1C1CCCC1` (stereo partly drawn) [UB-180657] and `CC[C@@H]1C(=O)N(C)c2cnc(Nc3ccc(C(=O)NCCCNCCOCC(=O)Nc4cccc5c4CN(C4CCC(=O)NC4=O)C5=O)cc3OC)nc2N1C1CCCC1` (stereo partly drawn) [UB-180698] fall in the same range of pEC50: 7.00 to 8.00 for the first, 7.00 to 8.00 for the second.

`CC[C@@H]1C(=O)N(C)c2cnc(Nc3ccc(C(=O)NCCOCCOCCNCC(=O)Nc4cccc5c4CN(C4CCC(=O)NC4=O)C5=O)cc3OC)nc2N1C1CCCC1` (stereo partly drawn) [UB-180814] and `CC[C@@H]1C(=O)N(C)c2cnc(Nc3ccc(C(=O)NCCNCCOCCOCCOCCC(=O)Nc4cccc5c4CN(C4CCC(=O)NC4=O)C5=O)cc3OC)nc2N1C1CCCC1` (stereo partly drawn) [UB-180820] fall in the same range of pEC50: 7.00 to 8.00 for the first, 7.00 to 8.00 for the second.

`Cc1ncsc1-c1ccc(CNC(=O)[C@@H]2C[C@@H](O)CN2C(=O)[C@@H](NC(=O)COCCOCCNC(=O)c2ccc(Nc3ncc4c(n3)-c3ccc(Cl)cc3C(c3c(F)cccc3F)=NC4)cc2)C(C)(C)C)cc1` [UB-180533] and `Cc1ncsc1-c1ccc(CNC(=O)[C@@H]2C[C@@H](O)CN2C(=O)[C@@H](NC(=O)COCCCNC(=O)c2ccc(Nc3ncc4c(n3)-c3ccc(Cl)cc3C(c3c(F)cccc3F)=NC4)cc2)C(C)(C)C)cc1` [UB-180506] fall in the same range of pEC50: 6.00 to 7.00 for the first, 6.00 to 7.00 for the second.

First: CC[C@@H]1c2c(C#N)ncn2-c2cnc(Nc3ccc(C(=O)NCCC(=O)N[C@H](C(=O)N4C[C@H](O)C[C@H]4C(=O)NCc4ccc(-c5scnc5C)cc4)C(C)(C)C)cc3OC)nc2N1C1CCCC1 [UB-180623]
Second: CC[C@@H]1c2c(C#N)ncn2-c2cnc(Nc3ccc(C(=O)NCC(=O)N[C@H](C(=O)N4C[C@H](O)C[C@H]4C(=O)NCc4ccc(-c5scnc5C)cc4)C(C)(C)C)cc3OC)nc2N1C1CCCC1 [UB-180592]
The pEC50 of the first is lower: less than 6.00 for the first, 6.00 to 7.00 for the second.

`CC[C@@H]1C(=O)N(C)c2cnc(Nc3ccc(C(=O)NCCOCCOCCOCCNCC(=O)Nc4cccc5c4CN(C4CCC(=O)NC4=O)C5=O)cc3OC)nc2N1Cc1ccc(Br)cc1` (stereo partly drawn) [UB-180664] and `COc1cc(C(=O)NCCOCCOCCOCCNCCC(=O)Nc2cccc3c2CN(C2CCC(=O)NC2=O)C3=O)ccc1Nc1ncc2c(n1)N(C(C)C)[C@H](C)C(=O)N2C` (stereo partly drawn) [UB-180702] fall in the same range of pEC50: 7.00 to 8.00 for the first, 7.00 to 8.00 for the second.

Compared with `O=C1CCC(N2Cc3c(NC(=O)CCNCCOC4CCN(CCOCCNC(=O)c5ccc(Nc6ncc7c(n6)-c6ccc(Cl)cc6C(c6c(F)cccc6F)=NC7)cc5)CC4)cccc3C2=O)C(=O)N1` (stereo not drawn) [UB-180821], `O=C1CCC(N2Cc3c(NC(=O)CCOCCNCCN4CCC(NC(=O)c5ccc(Nc6ncc7c(n6)-c6ccc(Cl)cc6C(c6c(F)cccc6F)=NC7)cc5)CC4)cccc3C2=O)C(=O)N1` (stereo not drawn) [UB-180768] is higher in pEC50: less than 6.00 for the first, 6.00 to 7.00 for the second. The second is the more potent here.

Compared with `COc1cc(C(=O)NCCOCCNCCC(=O)Nc2cccc3c2CN(C2CCC(=O)NC2=O)C3=O)ccc1Nc1ncc2c(n1)N(C(C)C)[C@H](C)C(=O)N2C` (stereo partly drawn) [UB-180697], `CC[C@@H]1C(=O)N(C)c2cnc(Nc3ccc(C(=O)NCCNCCC(=O)Nc4cccc5c4CN(C4CCC(=O)NC4=O)C5=O)cc3OC)nc2N1C1CCCC1` (stereo partly drawn) [UB-180682] is higher in pEC50: 6.00 to 7.00 for the first, 7.00 to 8.00 for the second.

`O=C1CCC(N2Cc3c(NC(=O)CCNCCOCCOCCOCCNC(=O)c4ccc(Nc5ncc6c(n5)-c5ccc(Cl)cc5C(c5c(F)cccc5F)=NC6)cc4)cccc3C2=O)C(=O)N1` (stereo not drawn) [UB-180728] and `O=C1CCC(N2Cc3c(NC(=O)CCCNCCOCCOCCOCCNC(=O)c4ccc(Nc5ncc6c(n5)-c5ccc(Cl)cc5C(c5c(F)cccc5F)=NC6)cc4)cccc3C2=O)C(=O)N1` (stereo not drawn) [UB-180773] fall in the same range of pEC50: 6.00 to 7.00 for the first, 6.00 to 7.00 for the second.

First: CC[C@@H]1c2c(C#N)ncn2-c2cnc(Nc3ccc(C(=O)NC4CCN(CCCCC(=O)N[C@H](C(=O)N5C[C@H](O)C[C@H]5C(=O)NCc5ccc(-c6scnc6C)cc5)C(C)(C)C)CC4)cc3OC)nc2N1C1CCCC1 [UB-180591]
Second: CC[C@@H]1C(=O)N(C)c2cnc(Nc3ccc(C(=O)NCCOCCOCCNCCC(=O)N[C@H](C(=O)N4C[C@H](O)C[C@H]4C(=O)NCc4ccc(-c5scnc5C)cc4)C(C)(C)C)cc3OC)nc2N1C1CCCC1 [UB-180619]
The pEC50 of the first is higher: 6.00 to 7.00 for the first, less than 6.00 for the second. The first is the more potent here.

Compared with `COc1cc(C(=O)NCCCNCCCC(=O)Nc2cccc3c2CN(C2CCC(=O)NC2=O)C3=O)ccc1Nc1ncc2c(n1)N(Cc1ccc(Br)cc1)CC(C)(C)C(=O)N2C` (stereo not drawn) [UB-180677], `CC[C@@H]1C(=O)N(C)c2cnc(Nc3ccc(C(=O)NC4CCN(CCNCCCCC(=O)Nc5cccc6c5CN(C5CCC(=O)NC5=O)C6=O)C4)cc3OC)nc2N1C1CCCC1` (stereo partly drawn) [UB-180693] is higher in pEC50: 6.00 to 7.00 for the first, 7.00 to 8.00 for the second. The second is the more potent here.

`Cc1ncsc1-c1ccc(CNC(=O)[C@@H]2C[C@@H](O)CN2C(=O)[C@@H](NC(=O)COCCNCCn2cc(COCCOCCOCCNC(=O)[C@]3(Cc4cccc(Nc5nccs5)n4)CC[C@@H](Oc4cccc(Cl)c4F)CC3)nn2)C(C)(C)C)cc1` [UB-180791] and `Cc1ncsc1-c1ccc(CNC(=O)[C@@H]2C[C@@H](O)CN2C(=O)[C@@H](NC(=O)CCNCCOCCn2cc(CNC(=O)c3ccc(Nc4ncc5c(n4)-c4ccc(Cl)cc4C(c4c(F)cccc4F)=NC5)cc3)nn2)C(C)(C)C)cc1` [UB-180784] cannot be ordered by pEC50: less than 6.00 for the first, less than 6.00 for the second.

`O=C1CCC(N2Cc3c(NC(=O)CCNCCn4ncc(CNC(=O)[C@]5(Cc6cccc(Nc7nccs7)n6)CC[C@@H](Oc6cccc(Cl)c6F)CC5)n4)cccc3C2=O)C(=O)N1` (stereo partly drawn) [UB-180774] and `O=C1CCC(N2Cc3c(NC(=O)CCNCCn4cc(CNC(=O)[C@]5(Cc6cccc(Nc7nccs7)n6)CC[C@@H](Oc6cccc(Cl)c6F)CC5)nn4)cccc3C2=O)C(=O)N1` (stereo partly drawn) [UB-180729] fall in the same range of pEC50: 6.00 to 7.00 for the first, 6.00 to 7.00 for the second.

First: CC[C@@H]1C(=O)N(C)c2cnc(Nc3ccc(C(=O)NC4CCN(CCOCCN(CC(=O)Nc5cccc6c5CN(C5CCC(=O)NC5=O)C6=O)C(C)=O)CC4)cc3OC)nc2N1C1CCCC1 (stereo partly drawn) [UB-180835]
Second: O=C1CCC(N2Cc3c(NC(=O)CNCCOCCn4cc(CNC(=O)c5ccc(Nc6ncc7c(n6)-c6ccc(Cl)cc6C(c6c(F)cccc6F)=NC7)cc5)nn4)cccc3C2=O)C(=O)N1 (stereo not drawn) [UB-180743]
The pEC50 of the first is higher: 7.00 to 8.00 for the first, 6.00 to 7.00 for the second.

For `O=C1CCC(N2Cc3c(NC(=O)COCCNCCn4cc(CNC(=O)c5ccc(Nc6ncc7c(n6)-c6ccc(Cl)cc6C(c6c(F)cccc6F)=NC7)cc5)nn4)cccc3C2=O)C(=O)N1` (stereo not drawn) [UB-180732], the pEC50 was 6.00 to 7.00.

Same assay, conditions: MV4;11 cells

First: O=C1CCC(N2Cc3c(NC(=O)CCNCCOCCn4cc(CNC(=O)[C@]5(Cc6cccc(Nc7nccs7)n6)CC[C@@H](Oc6cccc(Cl)c6F)CC5)nn4)cccc3C2=O)C(=O)N1 (stereo partly drawn) [UB-180749]
Second: O=C1CCC(N2Cc3c(NC(=O)CCNCCOCCn4cc(CNC(=O)c5ccc(Nc6ncc7c(n6)-c6ccc(Cl)cc6C(c6c(F)cccc6F)=NC7)cc5)nn4)cccc3C2=O)C(=O)N1 (stereo not drawn) [UB-180748]
The pEC50 of the first is higher: 6.00 to 7.00 for the first, less than 6.00 for the second.

`O=C1CCC(N2Cc3c(NC(=O)CCNCCOCCn4cc(CNC(=O)[C@]5(Cc6cccc(Nc7nccs7)n6)CC[C@@H](Oc6cccc(Cl)c6F)CC5)nn4)cccc3C2=O)C(=O)N1` (stereo partly drawn) [UB-180739] showed a pEC50 of less than 6.00.
